Measured values published in patent publication US20250108068A1, “COMPOSITIONS AND METHODS FOR ALLEVIATING PULMONARY AILMENTS” (Color Ventures LLC, priority 2023, published 2025).

What was measured:
[1] = tested on: sheep; assay: Tracheal mucus velocity (TMV) in sheep after CFTR inhibition; type: in vivo; details: nebulization, over a period of 2-3 hours
Method: Modeling mucociliary clearance. To model mucociliary clearance, sheep 40-50 kg were intubated and the velocity of mucociliary clearance in the trachea was measured by insufflation of radio-opaque Teflon discs were placed into the sheep trachea so that they become embedded in the mucus in the trachea. The movement of multiple discs over several minutes was determined using fluoroscopy and the tracheal mucus velocity (TMV) is calculated as the average that the discs travel per minute. After establishing a baseline TMV, a potent long-lasting inhibitor of CFTR (INH-172) was delivered by nebulization with TMV measurements performed every hour, and over a period of 2-3 hours the TMV declines by approximately 50% in a manner like CF where the inability to secrete Cl^− and NaHCO3 results in dehydration of the airways and slowing of mucociliary clearance.
Once the stable inhibition of TMV has been established, typically at hour 4, the test compound was delivered by nebulization and TMV measured for an additional 8 hours. Inhibitors of ENaC like amiloride (as described in Scott, David W., et al., American Journal of Respiratory and Critical Care Medicine 196.6 (2017): 734-744, incorporated herein in its entirety) and P1037/VX371 show rescue of TMV that is of limited duration with an effect that only lasts for 2-3 hours, due to systemic clearance.

[2] = tested on: test epithelia (MucilAir™); assay: Cilia beating frequency (CBF) and % active area; type: cell-based, human; details: positive control, 100 μM in basolateral compartment for 2 hours
Method: In the studies described herein, test epithelia (MucilAir™, Epithelix) are reconstituted from cells isolated from a healthy bronchial donor. The formulation is exposed apically to mimic deposition on the nasal mucosa via inhalation. In the studies described herein, positive controls depend on experiment. For example: Isoproterenol 100 μM in culture medium; CBF activator applied in basolateral compartment ([…]) for 2 hours (CBF positive control); Isoproterenol 100 μM in culture medium (MCC positive control); […] Timeline of Epithelia Experiments. At time point 0, epithelia are treated with the test formulation or control using an apical mode of administration. Test formulations or control were exposed at a quantity of 10 μL, at the concentrations in Table 1. […] In some embodiments, CBF is analyzed with Sisson-Ammons Video Analysis (SAVA) software (Sisson et al., Journal of microscopy 211.2 (2003): 103-111) using an inverted phase contrast microscope (Zeiss®, Germany). In some embodiments, CBF is analyzed with Epithelix software (Cilia-X). […] In some embodiments, two videos are recorded per well at 120 frames per second with a total of 512 frames per video. In other embodiments, the CBF is expressed as Hz 256, wherein movies are captured at a high frequency rate of 125 frames per second. […]

SMILES | Decline of TMV from baseline [1] | Cilia beating frequency [2]
O=C(O)c1ccc(C=C2SC(=S)N(c3cccc(C(F)(F)F)c3)C2=O)cc1 [INH-172] | approximately 50% | 
CC(C)NCC(O)c1ccc(O)c(O)c1 (centres unmarked) [positive control of cilia beating, Isoproterenol] |  | highest cilia beating frequency
